The values that follow come from patent US20260144802A1, “POST-OPERATIVE DELIRIUM SUPPRESSANT” (priority 2022, published 2026).

The subject of one assay is IL-1β mRNA. As to the kind of experiment: IL-1β mRNA expression in the hippocampus by RT-PCR after laparotomy. It counts as in vivo, rat. Conditions: Example 4, 12 hours after surgery, vs laparotomy+solvent, FIG. 5. The protocol: (§1) Forty (40) SD male elderly rats of 19 to 24 months of age were randomly divided into a control group, an ALLO administration group, a laparotomy+solvent administration group, and a laparotomy+ALLO administration group by 10 rats.
Rats in the laparotomy group were subjected to laparotomy in the same manner as in Example 1. To rats in the laparotomy+ALLO administration group, 10 mg/kg of brexanolone was intraperitoneally administered immediately after surgery. To rats in the laparotomy+solvent administration group, only the same amount of solvent was administered instead of brexanolone.
Rats in the control group and the ALLO administration group were not subjected to laparotomy, and only subjected to anesthesia with isoflurane and local infiltration anesthesia with ropivacaine in the same manner. […]
Twelve (12) hours after surgery, the hippocampus, which is considered to be strongly related to an onset of post-operative delirium, was extracted, and mRNA expression levels of IL-1β and TNFα, which are inflammatory cytokines suspected to be related to an onset mechanism of post-operative delirium, were measured by an RT-PCR method. After the trace memory conditioning test of Example 1, the hippocampus was extracted at 48 hours after the laparotomy, and expression levels of IL-1 and TNFα in the hippocampus sample were measured by an ELISA method. […]

The subject of assay [1] is post-operative delirium model rats. The assay can be described thus: Trace memory conditioning test (trace memory test and context memory test) in aged post-operative delirium model rats. The format is in vivo, rat. Conditions: SD male elderly rats with laparotomy, 10 mg/kg intraperitoneally immediately after surgery, vs laparotomy+solvent.
Excerpt: as §1
Rats in the laparotomy+solvent administration group and the laparotomy+ALLO administration group were anesthetized with 1.5 to 2.0% isoflurane, and then underwent a median incision of 2 cm in the abdomen. The small intestine was pulled out by about 5 cm from the laparotomy site and extended with a finger for 3 minutes. Next, the abdomen was closed, and local infiltration anesthesia was applied to the wound with 0.2% ropivacaine for post-operative pain. To rats in the laparotomy+ALLO administration group, 10 mg/kg of brexanolone was intraperitoneally administered immediately after surgery. To rats in the laparotomy+solvent administration group, only the same amount of solvent was administered instead of brexanolone. […]
Twelve (12) hours after acquisition of memory of stimulation, a “trace memory test” was performed. Specifically, “only sound stimulation” was performed under different gauges, and freezing behavior at that time was measured.
Finally, 4 hours after the trace memory test, rats were placed under a cage similar to the initial memory acquisition cage and freezing behavior of the rats without stimulation was measured as a “context memory test”.

Consider `C[C@@]1(O)CC[C@H]2[C@H](CC[C@@H]3[C@@H]2CC[C@]2(C)[C@@H](C(=O)Cn4cc(C#N)cn4)CC[C@@H]32)C1` [zuranolone], for which the “relative expression level of IL-1β mRNA in the hippocampus” value in the assay on IL-1β mRNA (3 mg/kg orally 30 minutes before anesthesia) was “significantly reduce”.
Turning to `CC(=O)[C@H]1CC[C@H]2[C@@H]3CC[C@H]4C[C@H](O)CC[C@]4(C)[C@H]3CC[C@]12C` [brexanolone], in assay [1] (FIG. 1(1)), the “attention (proportion of freezing behavior time, trace memory test)” value is listed as “significantly higher”. For the same compound, the “cognitive abilities (freezing behavior, context memory test)” value in assay [1] (FIG. 1(2)) is reported as “significantly higher”. Further, the “relative expression level of IL-1β mRNA in the hippocampus” value in the assay on IL-1β mRNA (10 mg/kg intraperitoneally 30 minutes before anesthesia) was “significantly reduce”.
